We go through two compounds from publication PMC5069765, “OsdR of Streptomyces coelicolor and the Dormancy Regulator DevR of Mycobacterium tuberculosis Control Overlapping Regulons” (mSystems, 2016).

One data set has as its target T1, OsdR (SCO0204) (Streptomyces coelicolor, UniProt Q9RI42).
T1 construct: His6-tagged, from plasmid pET0204 in E. coli BL21(DE3), Ni-NTA purified
T1 sequence (Q9RI42 1-233): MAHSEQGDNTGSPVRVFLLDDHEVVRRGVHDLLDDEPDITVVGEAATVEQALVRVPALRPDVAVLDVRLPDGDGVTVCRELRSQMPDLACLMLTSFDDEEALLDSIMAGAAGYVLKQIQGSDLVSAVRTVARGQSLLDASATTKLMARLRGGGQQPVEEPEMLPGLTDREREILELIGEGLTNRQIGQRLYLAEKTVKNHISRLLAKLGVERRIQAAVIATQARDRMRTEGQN
As to the kind of experiment: in vitro phosphorylation by AcP, read out by EMSA (DNA binding versus nonphosphorylated OsdR). The conditions noted are these: phosphor donor; covalent phosphorylation; indirect read-out. The format is biochemical.

For data set [1], the target named is T2, OsdR~P (phosphorylated with acetyl phosphate) (Streptomyces coelicolor) (UniProt Q9RI42).
T2 sequence: T1 sequence (Q9RI42 1-233)
As to the kind of experiment: EMSA. The conditions noted are these: AcP-phosphorylated; EMSA with 32P-labeled probes, 20 fmol DNA (50-mers), uM OsdR; AcP phosphorylation; buffer, pH, temperature not given (cited method).

`CC(=O)OP(=O)(O)O` [acetyl phosphate]: at OsdR (SCO0204), the “in vitro phosphorylation by AcP, read out by EMSA (DNA binding versus nonphospho)” value is listed as “OsdR~P was obtained after AcP phosphorylation in vitro”. The compound SCO2637 promoter registered a binding signal (fold lower affinity than other targets) in data set [1] of 2.
